Legend:
[1] = target: T1, Gonadotropin-releasing hormone receptor (Rattus norvegicus, UniProt P30969); assay: Inhibition of [125I]buserelin binding to rat Gonadotropin-releasing hormone receptor.
T1 sequence (P30969 whole entry): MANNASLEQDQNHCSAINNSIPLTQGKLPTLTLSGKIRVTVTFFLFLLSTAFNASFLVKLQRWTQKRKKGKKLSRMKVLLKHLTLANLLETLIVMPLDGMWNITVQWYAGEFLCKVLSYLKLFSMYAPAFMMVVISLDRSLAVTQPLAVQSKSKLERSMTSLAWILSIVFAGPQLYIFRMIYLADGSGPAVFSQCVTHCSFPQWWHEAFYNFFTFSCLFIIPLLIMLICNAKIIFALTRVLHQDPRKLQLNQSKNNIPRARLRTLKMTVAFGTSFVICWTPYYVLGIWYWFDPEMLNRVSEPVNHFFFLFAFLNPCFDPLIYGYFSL

[2] = target: T1, Gonadotropin-releasing hormone receptor; assay: Inhibition of GnRH-stimulated luteinizing hormone (LH) release in rat pituitary cells; assay type: functional, cell-based, Pituitary gland cell
[3] = target: T2, Gonadotropin-releasing hormone receptor (Homo sapiens, UniProt P30968); assay: Inhibition of GnRH-stimulated phosphatidylinositol (PI) hydrolysis in cloned chinese hamster ovary (CHO) cells expressing human GnRH receptor.; assay type: functional, cell-based
T2 sequence (P30968 whole entry): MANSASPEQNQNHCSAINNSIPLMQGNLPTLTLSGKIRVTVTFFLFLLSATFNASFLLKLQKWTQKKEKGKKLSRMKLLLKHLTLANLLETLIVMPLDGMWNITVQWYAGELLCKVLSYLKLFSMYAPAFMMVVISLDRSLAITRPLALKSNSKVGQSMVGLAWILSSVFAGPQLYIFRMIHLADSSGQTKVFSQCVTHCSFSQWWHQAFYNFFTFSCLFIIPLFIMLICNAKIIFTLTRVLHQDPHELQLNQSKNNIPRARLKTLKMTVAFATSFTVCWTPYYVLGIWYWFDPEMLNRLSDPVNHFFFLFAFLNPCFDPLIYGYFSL

[4] = target: Gonadotropin-releasing hormone receptor (Homo sapiens) (UniProt P30968); assay: Inhibition of [125I]buserelin binding to human Gonadotropin-releasing hormone receptor.
[5] = target: T2, Gonadotropin-releasing hormone receptor; assay: Inhibition of [125I]buserelin binding to human Gonadotropin-releasing hormone receptor.
[6] = target: T1, Gonadotropin-releasing hormone receptor; assay: Compound tested for the inhibition of GnRH-stimulated luteinizing hormone (LH) release in rat pituitary cells; assay type: functional, cell-based, Pituitary gland cell

IC50 [1] [nM]	IC50 [2] [nM]	IC50 [3] [nM]	IC50 [4] [nM]	IC50 [5] [nM]	IC50 [6] [nM]	SMILES
0.4	1000	–	–	–	–	CCCCN(CCCC)C(=O)c1ccc2[nH]c(-c3cc(C)cc(C)c3)c(CCNCCCCc3cccnc3)c2c1
–	210	58	3.2	–	–	CCN(CC)C(=O)C(C)(C)c1ccc2[nH]c(-c3cc(C)cc(C)c3)c(CCNCCCCc3ccncc3)c2c1
0.5	> 1300	–	–	–	–	Cc1cc(C)cc(-c2[nH]c3ccc(C(=O)N4CCCC4)cc3c2CCNCCCCc2ccncc2)c1
–	–	200	3.1	–	–	Cc1cc(C)cc(-c2[nH]c3ccc(C(C)(C)C(=O)N4C5CCC4CC5)cc3c2CCN(CCCCc2ccncc2)C(C)C)c1
0.6	1200	–	–	–	–	CCN(CCO)C(=O)c1ccc2[nH]c(-c3cc(C)cc(C)c3)c(CCNCCCCc3cccnc3)c2c1
0.3	400	–	–	–	–	Cc1cc(C)cc(-c2[nH]c3ccc(C(=O)N(C(C)C)C(C)C)cc3c2CCNCCCCc2ccncc2)c1
–	290	61	5	–	–	Cc1cc(C)cc(-c2[nH]c3ccc(C(C)(C)C(=O)N4CCCC4)cc3c2CCNCCCCc2cccnc2)c1
–	1300	610	–	45	–	COCCN(CCOC)C(=O)c1ccc2[nH]c(-c3cc(C)cc(C)c3)c(CCNCCCCc3cccnc3)c2c1
0.6	5100	–	–	–	–	Cc1cc(C)cc(-c2[nH]c3ccc(C(=O)N4CCCC4)cc3c2CCNCCCCc2cccnc2)c1
0.7	150	120	–	5	–	Cc1cc(C)cc(-c2[nH]c3ccc(C(=O)N(CC(C)C)CC(C)C)cc3c2CCNCCCCc2cccnc2)c1
–	960	54	2.3	–	–	CCN(C(=O)C(C)(C)c1ccc2[nH]c(-c3cc(C)cc(C)c3)c(CCNCCCCc3ccncc3)c2c1)C1CCCCC1
–	1000	260	–	36	–	CCN(CCO)C(=O)c1ccc2[nH]c(-c3cc(C)cc(C)c3)c(CCNCCCCc3ccncc3)c2c1
–	190	62	1	–	–	Cc1cc(C)cc(-c2[nH]c3ccc(C(C)(C)C(=O)N4CC(C)(C)C4)cc3c2CCNCCCCc2cccnc2)c1
–	1200	38	1.8	–	–	Cc1cc(C)cc(-c2[nH]c3ccc(C(C)(C)C(=O)N4CCCCC4)cc3c2CCNCCCCc2ccncc2)c1
–	–	260	–	32	–	Cc1cc(C)cc(-c2[nH]c3ccc(C(=O)N4C5CCC4CC5)cc3c2CCNCCCCc2ccncc2)c1
0.3	930	–	–	–	–	Cc1cc(C)cc(-c2[nH]c3ccc(C(C)(C)C(=O)N(C)C)cc3c2CCNCCCCc2ccncc2)c1
0.4	1600	–	–	–	–	Cc1cc(C)cc(-c2[nH]c3ccc(C(=O)N4CCOCC4)cc3c2CCNCCCCc2cccnc2)c1
–	–	–	4.8	–	340	Cc1cc(C)cc(-c2[nH]c3ccc(C(C)(C)C(=O)N4CCCC4)cc3c2CCNCCCCc2ccncc2)c1

Further lines, the compound ahead of its results:

SMILES	IC50 [1] [nM]	IC50 [2] [nM]	IC50 [3] [nM]	IC50 [4] [nM]	IC50 [5] [nM]	IC50 [6] [nM]
Cc1cc(C)cc(-c2[nH]c3ccc(C(C)(C)C(=O)N4C5CCC4CC5)cc3c2CCNCCCCc2ccncc2)c1	–	71	18	1.4	–	–
Cc1cc(C)cc(-c2[nH]c3ccc(C(=O)N(C)C)cc3c2CCNCCCCc2ccncc2)c1	0.8	1460	–	–	–	–
Cc1cc(C)cc(-c2[nH]c3ccc(C(C)(C)C(=O)N(CC(C)C)CC(C)C)cc3c2CCNCCCCc2ccncc2)c1	–	140	8.3	2.8	–	–
Cc1cc(C)cc(-c2[nH]c3ccc(C(C)(C)C(=O)N4C5CCC4CC5)cc3c2CCNCCCCc2cccnc2)c1	–	73	14	1.4	–	–
CCN(CC)C(=O)C(C)(C)c1ccc2[nH]c(-c3cc(C)cc(C)c3)c(CCNCCCCc3cccnc3)c2c1	–	240	94	3.3	–	–
Cc1cc(C)cc(-c2[nH]c3ccc(C(=O)N(C)C)cc3c2CCNCCCCc2cccnc2)c1	0.7	2600	–	–	–	–
Cc1cc(C)cc(-c2[nH]c3ccc(C(C)(C)C(=O)N4C5CCC4CC5)cc3c2CCN(CCCCc2ccncc2)CC(C)C)c1	–	–	300	8.2	–	–
CCN(CC)C(=O)c1ccc2[nH]c(-c3cc(C)cc(C)c3)c(CCNCCCCc3cccnc3)c2c1	0.6	400	190	–	23	–
Cc1cc(C)cc(-c2[nH]c3ccc(C(=O)N4C(C)CCC4C)cc3c2CCNCCCCc2ccncc2)c1 (stereo not given)	0.3	340	–	–	–	–
CCN(C(=O)c1ccc2[nH]c(-c3cc(C)cc(C)c3)c(CCNCCCCc3ccncc3)c2c1)C1CCCCC1	0.4	130	22	–	2.8	–
CCN(C(=O)c1ccc2[nH]c(-c3cc(C)cc(C)c3)c(CCNCCCCc3ccncc3)c2c1)C1CCCCCCC1	–	81	15	–	1.9	–
CCN(CC)C(=O)c1ccc2[nH]c(-c3cc(C)cc(C)c3)c(CCNCCCCc3ccncc3)c2c1	0.5	470	12	–	18	–
Cc1cc(C)cc(-c2[nH]c3ccc(C(C)(C)C(N)=O)cc3c2CCNCCCCc2cccnc2)c1	–	–	350	–	32	–
CCC(CC)(C(=O)N1C2CCC1CC2)c1ccc2[nH]c(-c3cc(C)cc(C)c3)c(CCNCCCCc3ccncc3)c2c1	–	260	40	1.7	–	–
Cc1cc(C)cc(-c2[nH]c3ccc(C4(C(=O)N5C6CCC5CC6)CCC4)cc3c2CCNCCCCc2ccncc2)c1	–	–	170	1.2	–	–
Cc1cc(C)cc(-c2[nH]c3ccc(C(=O)NC(C)C)cc3c2CCNCCCCc2cccnc2)c1	–	> 1300	1200	–	55	–

SMILES	IC50 [1] [nM]	IC50 [2] [nM]	IC50 [3] [nM]	IC50 [4] [nM]	IC50 [5] [nM]	IC50 [6] [nM]
CCN(CC)C(=O)c1ccc2[nH]c(-c3cc(C)cc(C)c3)c(CCN(C)CCCCc3ccncc3)c2c1	–	430	58	–	30	–
Cc1cc(C)cc(-c2[nH]c3ccc(C(=O)N(CC(F)(F)F)CC(F)(F)F)cc3c2CCNCCCCc2ccncc2)c1	0.6	3600	91	–	36	–
Cc1cc(C)cc(-c2[nH]c3ccc(C(C)(C)C(=O)N4CCOCC4)cc3c2CCNCCCCc2ccncc2)c1	–	540	59	11	–	–
Cc1cc(C)cc(-c2[nH]c3ccc(C(C)(C)C(=O)N4C(C)CCC4C)cc3c2CCNCCCCc2ccncc2)c1 (stereo not given)	–	160	15	2.8	–	–
CCN(CCCCc1ccncc1)CCc1c(-c2cc(C)cc(C)c2)[nH]c2ccc(C(C)(C)C(=O)N3C4CCC3CC4)cc12	–	730	90	2.2	–	–
CCC(C)(C(=O)N1C2CCC1CC2)c1ccc2[nH]c(-c3cc(C)cc(C)c3)c(CCNCCCCc3ccncc3)c2c1 (stereo not given)	–	240	38	1	–	–
Cc1cc(C)cc(-c2[nH]c3ccc(C(=O)N4CCOCC4)cc3c2CCNCCCCc2ccncc2)c1	0.3	1400	–	–	–	–
Cc1cc(C)cc(-c2[nH]c3ccc(C(=O)N(CC(C)C)CC(C)C)cc3c2CCNCCCCc2ccncc2)c1	0.6	380	80	–	7.1	–
Cc1cc(C)cc(-c2[nH]c3ccc(C(C)(C)C(=O)N(CC(C)C)CC(C)C)cc3c2CCNCCCCc2cccnc2)c1	–	400	22	1.7	–	–
Cc1cc(C)cc(-c2[nH]c3ccc(C(=O)N4C(C)CCC4C)cc3c2CCNCCCCc2cccnc2)c1 (stereo not given)	–	360	62	–	3.6	–
CCN(C(=O)c1ccc2[nH]c(-c3cc(C)cc(C)c3)c(CCNCCCCc3cccnc3)c2c1)C(C)C	–	830	110	–	11	–
Cc1cc(C)cc(-c2[nH]c3ccc(C(C)(C)C(=O)N(C)C)cc3c2CCNCCCCc2cccnc2)c1	0.5	680	–	–	–	–
Cc1cc(C)cc(-c2[nH]c3ccc(C(C)(C)C(=O)N4C5CCC4CC5)cc3c2CCN(C)CCCCc2ccncc2)c1	–	71	110	1.5	–	–
CCCCN(CCCC)C(=O)c1ccc2[nH]c(-c3cc(C)cc(C)c3)c(CCNCCCCc3ccncc3)c2c1	0.4	240	–	–	–	–
CCN(C(=O)c1ccc2[nH]c(-c3cc(C)cc(C)c3)c(CCNCCCCc3cccnc3)c2c1)C1CCCCC1	0.2	140	16	–	2.3	–

— ChEMBL document CHEMBL1134123, “Potent nonpeptide GnRH receptor antagonists derived from substituted indole-5-carboxamides and -acetamides bearing a pyridine side-chain terminus” (Bioorg Med Chem Lett, 2001)
